What was measured:
haemoglobin [1] = target: T1, haemoglobin (Homo sapiens, UniProt P68871+P69905); assay: Uptake of 65Zn from 2:1 zinc(II) complexes by haemoglobin in human erythrocytes; format: cell-based; conditions: 2:1 zinc complex 5 x 10^-4M with excess ligand, 1 hour, 37° C., pH 7.4, human erythrocytes
T1 construct: A 5% suspension of human erythrocytes in aqueous sodium chloride; endogenous in cells; host or cells: human erythrocytes (intact, 5% suspension)
Method: (§1) Uptake of zinc from complexes by haemoglobin (1) A 5% suspension of human erythrocytes in aqueous sodium chloride (b 130 mM) buffered to pH 7.4 by 20 mM Tris hydrochloride (2 ml) was incubated for 1 hour at 37° C. with the 2:1 zinc(II) complex in the presence of an excess of the ligand-forming compound. The complex was formed in situ in the buffer using ^65 Zn labelled ZnSO4 at a concentration selected over a range from 1×10^-6 to 4×10^-3 M compound at ten times this concentration and a small amount of Tris free base (to about 2 mM) added to the medium to avoid an acid pH on reaction of the ZnSO4 and the compound to form the complex. Following the period of incubation, an aliquot of the erythrocyte/medium mixture was placed above a layer of silicone oil and the erythrocytes separated by […] centrifugation through the oil. The ^65 Zn levels associated with the erythrocytes and the incubation medium were then counted and the distribution ratio (concentration in erythrocytes/concentration in medium) calculated. The average distribution ratios of zinc obtained in a series of experiments for the homogeneous 2:1 complex from the ligand-providing compounds 3-hydroxy-2methyl-4-pyrone, 2-ethyl-3-hydroxy-4-pyrone and 3-hydroxy-2-(1'-methylethyl)-4-pyrone at a concentration of 5 x 10^-4M are shown in Table 1 together with the percentage of the total amount of zinc which is absorbed in the erythrocytes.

Normal erythrocytes = assay: Oxygen dissociation curve / oxygen affinity, normal erythrocytes; format: cell-based, human
Method: (§2) (1) A 50% suspension of human erythrocytes in pH 7.09 8BisTris/NaCl buffer005M BisTris(bis(2-hydroxyethyl)imino-tris(hydroxymethyl)methane and 0.13M NaCl was incubated for 15 minutes at 37° C. with the 2:1 zinc(II) complex of 2-ethyl-3-hydroxy-4-pyrone in the presence of an excess of the ligand-forming compound, the complex being formed in situ using zinc sulphate and a 10 molar excess of 2-ethyl-3-hydroxy-4-pyrone (to provide the 2:1 complex and an 8 molar excess of the pyrone). The oxygen dissociation curve of the erythrocytes was then determined using the method of Bellingham and Huehns (Nature, -968, 218, 924-926) which involves measuring the change of OD at two wavelengths (570 and 555 nm) after the sequential measured addition of oxygen in a tanometer. The experiment was conducted using normal erythrocytes, 2,3-diphosphoglyceric acid (DPG) depleted erythrocytes, foetal erythocytes and sickle erythrocytes. A 2.5 mM concentration of zinc was employed in each case together with a proportion of erythrocytes such as to provide a 2:1 ratio of zinc:haemoglobin and consequent saturation of the haemoglobin by zinc, except in one experiment where the proportion was varied to provide a ratio varying from 0.5:1 to 2:1. In each case a control was carried out in the absence of any zinc sulphate or 2-ethyl-3-hydroxy-4-pyrone and in one case two additional controls were carried out in the presence of one of these compounds used alone. The values for p(O2)50 (i.e. the oxygen pressure at which 50% of the haemoglobin is in the oxygenated form) obtained in each case are shown in Table 2 (together with the inferred Zn:Hb ratio) from which it will be seen that the oxygen affinity of normal erythrocytes, and also of sickle erythrocytes, is increased through treatment of the cells with zinc(II) (2-ethyl-3-hydroxy-4-pyrone)2. Foetal erythrocytes, which contain Hb-F and therefore show different characteristics from normal eythrocytes which contain Hb-A, were as expected not affected. […] With sickle erythrocytes the effect is even more marked as is further illustrated in (2) below.
(§3) (2) The effect of the 2:1 2-ethyl-3-hydroxy-4-pyrone:zinc(II) complex on normal and sickle erythrocytes was further compared using a basically similar procedure to that described in (-) above. Concentrations of 2.5 mM ZnSO4 and 25 mM pyrone, and a 2:1 Zn:Hb ratio were again used but the incubation period was extended to 1 hour. In each case a control experiment was carried out in the absence of any zinc sulphate or pyrone.
(3) The effect of different concentrations of the 2:1 2-ethyl-3-hydroxy-4-pyrone:zinc(II) complex upon normal erythrocytes was studied using a basically similar procedure to that described in (l) above but with ZnSO4 concentrations of 0.1, 1 and 10 mM (and ten times these concentrations of the pyrone) and extending the incubation period to 1 hour. A control experiment was carried out in the absence of any zinc sulphate or pyrone.

[2] = system: DPG depleted erythrocytes; assay: Oxygen dissociation curve / oxygen affinity, DPG depleted erythrocytes; format: cell-based, human; conditions: 2.5 mM ZnSO4 + 25 mM pyrone, Zn:Hb 2:1; control 15.75
Method: (§4) (1) A 50% suspension of human erythrocytes in pH 7.09 8BisTris/NaCl buffer005M BisTris(bis(2-hydroxyethyl)imino-tris(hydroxymethyl)methane and 0.13M NaCl was incubated for 15 minutes at 37° C. with the 2:1 zinc(II) complex of 2-ethyl-3-hydroxy-4-pyrone in the presence of an excess of the ligand-forming compound, the complex being formed in situ using zinc sulphate and a 10 molar excess of 2-ethyl-3-hydroxy-4-pyrone (to provide the 2:1 complex and an 8 molar excess of the pyrone). The oxygen dissociation curve of the erythrocytes was then determined using the method of Bellingham and Huehns (Nature, -968, 218, 924-926) which involves measuring the change of OD at two wavelengths (570 and 555 nm) after the sequential measured addition of oxygen in a tanometer. The experiment was conducted using normal erythrocytes, 2,3-diphosphoglyceric acid (DPG) depleted erythrocytes, foetal erythocytes and sickle erythrocytes. A 2.5 mM concentration of zinc was employed in each case together with a proportion of erythrocytes such as to provide a 2:1 ratio of zinc:haemoglobin and consequent saturation of the haemoglobin by zinc, except in one experiment where the proportion was varied to provide a ratio varying from 0.5:1 to 2:1. […]

Sickle erythrocytes = assay: Oxygen dissociation curve / oxygen affinity, sickle erythrocytes; format: cell-based, human
Method: as §2, §3

erythrocyte ghosts = assay: Uptake of 65Zn by erythrocyte ghosts lacking haemoglobin; format: cell-based, human; conditions: 2.5 mM 65ZnSO4 and 25 mM 2-ethyl-3-hydroxy-4-pyrone
Method: as §1, with “The average distribution ratios of zinc obtained in a series of experiments for the homogeneous 2:1 complex from the ligand-providing compounds 3-hydroxy-2methyl-4-pyrone, 2-ethyl-3-hydroxy-4-pyrone and 3-hydroxy-2-(1'-methylethyl)-4-pyrone at a concentration of 5 x 10^-4M are shown in Table 1 together with the percentage of the total amount of zinc which is absorbed in the erythrocytes.” left out

Foetal erythrocytes = assay: Oxygen dissociation curve / oxygen affinity, foetal erythrocytes; format: cell-based, human
Method: as §4

haemoglobin [3] = assay: Donation of zinc to haemoglobin, elution profile of 65Zn label on PD-10 column; format: binding
Method: There was no evidence of any saturation of the rate of uptake over the concentration range studied so that the complex is not actively transported and, in order to account for the high distribution ratios observed, the zinc must therefore dissociate from the complex and bind to a macromolecule or membrane associated with the erythrocyte. The experiment just described was repeated at a concentration of 2.5 mM ^65 ZnSO4 and 25 mM 2-ethyl-3-hydroxy-4-pyrone using erythrocyte ghosts in which the haemoglobin is lacking rather than whole erythrocytes. […] (2) The ability of the zinc(II) complex of 2-ethyl-3-hydroxy-4-pyrone to donate zinc to haemoglobin was investigated by [j studying the elution profile of the ^65 Zn label when a mixture of haemoglobin and the ^65 Zn-labelled complex (at 1 mM concentration)in NaCI (130 mM) buffered to pH 7.4 by Tris hydrochloride is applied to a PD-10 colum (Sephadex […] gel permeation column - Pharmacia).

T1 sequence (P69905 2-142 limits assumed): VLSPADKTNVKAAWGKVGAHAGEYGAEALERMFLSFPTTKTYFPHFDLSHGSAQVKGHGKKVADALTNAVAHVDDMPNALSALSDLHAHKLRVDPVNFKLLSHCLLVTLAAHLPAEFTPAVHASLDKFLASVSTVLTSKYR
T1 sequence (P68871 2-147 limits assumed): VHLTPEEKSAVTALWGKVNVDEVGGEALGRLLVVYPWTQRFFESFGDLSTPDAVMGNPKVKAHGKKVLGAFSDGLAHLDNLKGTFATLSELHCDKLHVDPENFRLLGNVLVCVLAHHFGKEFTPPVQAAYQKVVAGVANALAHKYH

**Q.** How did the “Distribution ratio (concentration in erythrocytes/concentration in medium)” value (haemoglobin [1]) turn out when `Cc1occc(=O)c1[O-].Cc1occc(=O)c1[O-].[Zn+2]` [zinc(II) (3-hydroxy-2-methyl--pyrone)2] was run?
**A.** Its value is 8.

**Q.** What about the “Percentage of zinc absorbed” value (haemoglobin [1]) of the same molecule?
**A.** Its value is 54%.

**Q.** With `CCc1occc(=O)c1O` [pyrone, 2-ethyl-3-hydroxy-4-pyrone, reference compound] as the molecule, how does the “P(O2)50” value (Normal erythrocytes; 2.5 mM pyrone alone, Zn:Hb 0:1, control 26) read?
**A.** The value was 28 mmHg.

**Q.** `O=S(=O)([O-])[O-].[Zn+2]` [ZnSO4, zinc sulphate, reference compound] was tested. Which “P(O2)50” value (Normal erythrocytes; 2.5 mM ZnSO4 alone, Zn:Hb 2:1, control 26) did it give?
**A.** The value was 24.5 mmHg.

**Q.** What does the source list for `CCc1occc(=O)c1[O-].CCc1occc(=O)c1[O-].[Zn+2]` [zinc(II) (2-ethyl-3-hydroxy-4-pyrone)2]?
**A.** Distribution ratio (concentration in erythrocytes/concentration in medium) (haemoglobin [1]): 300; Percentage of zinc absorbed (haemoglobin [1]): 96%; P(O2)50 [2]: 9.25 mmHg; P(O2)50 (Sickle erythrocytes; 2.5 mM ZnSO4 + 25 mM pyrone, Zn:Hb 2:1, control 36): 18.5 mmHg; shift in the oxygen dissociation curve (in words) (Sickle erythrocytes; 2.5 mM ZnSO4, 25 mM pyrone, 1 hour, FIG. 1b): a significant left shift in the oxygen dissociation curve is produced in both cases but that the difference from the control is more marked for the sickle erythrocytes; p(O2)50, treated cells (Sickle erythrocytes; 2.5 mM ZnSO4 and 25 mM pyrone, Zn:Hb 2:1, 1 hour (FIG. 1b), control 36.0): 18.5 mm Hg; p(O2)50 shift (Sickle erythrocytes; 2.5 mM ZnSO4 and 25 mM pyrone, Zn:Hb 2:1, 1 hour, versus control, sickle erythrocytes): 17.5 mm Hg; oxygen affinity (in words) (Sickle erythrocytes; sickle erythrocytes, 2.5 mM zinc, 15 minutes): increased; uptake of zinc by erythrocyte ghosts (in words) (erythrocyte ghosts): Only a low level of uptake of zinc was observed; P(O2)50 (Foetal erythrocytes; 2.5 mM ZnSO4 + 25 mM pyrone, Zn:Hb 0:1 (assumed no uptake by HbF), control 22): 24 mmHg; oxygen affinity (in words) (Foetal erythrocytes; foetal erythrocytes, 2.5 mM zinc, 15 minutes): not affected; binding of zinc to haemoglobin (in words) (haemoglobin [3]; 1 mM complex, 20-fold molar proportion of ligand:zinc, NaCl 130 mM, pH 7.4): the zinc is found to bind tightly to haemoglobin; binding of zinc to haemoglobin versus ligand (in words) (haemoglobin [3]; haemoglobin versus 2-ethyl-3-hydroxy-4-pyrone): zinc binds more tightly to haemoglobin than to 2-ethyl-3-hydroxy-4-pyrone; P(O2)50 (Normal erythrocytes; 2.5 mM ZnSO4 + 25 mM pyrone, Zn:Hb 0.5:1, control 30.0): 23.5 mmHg; P(O2)50 (Normal erythrocytes; 2.5 mM ZnSO4 + 25 mM pyrone, Zn:Hb 1:1, control 30.0): 17.0 mmHg; P(O2)50 (Normal erythrocytes; 2.5 mM ZnSO4 + 25 mM pyrone, Zn:Hb 1.5:1, control 30.0): 15.0 mmHg; P(O2)50 (Normal erythrocytes; 2.5 mM ZnSO4 + 25 mM pyrone, Zn:Hb 2:1, control 26): 15.5 mmHg; P(O2)50 (Normal erythrocytes; 2.5 mM ZnSO4 + 25 mM pyrone, Zn:Hb 2:1, control 27.5): 15 mmHg; P(O2)50 (Normal erythrocytes; 2.5 mM ZnSO4 + 25 mM pyrone, Zn:Hb 2:1, control 30.0): 15.0 mmHg; shift in the oxygen dissociation curve (in words) (Normal erythrocytes; 2.5 mM ZnSO4, 25 mM pyrone, 1 hour, FIG. 1a): a significant left shift in the oxygen dissociation curve; p(O2)50, treated cells (Normal erythrocytes; 2.5 mM ZnSO4 and 25 mM pyrone, Zn:Hb 2:1, 1 hour (FIG. 1a), control 27.5): 15.0 mm Hg; p(O2)50 shift (Normal erythrocytes; 2.5 mM ZnSO4 and 25 mM pyrone, Zn:Hb 2:1, 1 hour, versus control, normal erythrocytes): 12.5 mm Hg; dose response of shift in the oxygen dissociation curve (in words) (Normal erythrocytes; ZnSO4 0.1, 1 and 10 mM with ten times pyrone, 1 hour, FIG. 2): dose response effect; shift in the oxygen dissociation curve (in words) (Normal erythrocytes; complex 0.1 mM, 1 hour, FIG. 2): still a discernible left shift in the oxygen dissociation curve; oxygen affinity (in words) (Normal erythrocytes; normal erythrocytes, 2.5 mM zinc, 15 minutes): increased

**Q.** What does the source list for `CC(C)c1occc(=O)c1[O-].CC(C)c1occc(=O)c1[O-].[Zn+2]` [zinc(II) (3-hydroxy-2-(2'-methylethyl)-4-pyrone)2]?
**A.** Distribution ratio (concentration in erythrocytes/concentration in medium) (haemoglobin [1]): 550; Percentage of zinc absorbed (haemoglobin [1]): 98%
